This passage reports remaining binding results from patent publication US10870647B2, “Imidazopyridine derivative, method for preparing same, and pharmaceutical composition containing same as active ingredient for preventing or treating cancer” (DAEGU-GYEONGBUK MEDICAL INNOVATION FOUNDATION, priority 2016, dated 2020).

Structures are written as SMILES.

Common to all, as to experiment: Kinase selectivity, scanMAX Kinase assay panel (DiscoverX), % control at 1 uM
Common to all, as to format: binding

Experiment [1] concerns the target T1, scanMAX Kinase assay panel (Homo sapiens, UniProt P27037).
T1 construct: purchased DiscoverX
Particulars: ACVR2A; 1 uM; read-out: Percent Control (%). The procedure, abridged:
(§1)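 1 uM cpd (DMSO) per kinase; % ctrl = [cpd − pos ctrl]/[neg ctrl − pos ctrl] × 100; hit if <35.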

For experiment [2], the target named is T2, scanMAX Kinase assay panel (Homo sapiens, UniProt Q16816).
T2 construct: purchased DiscoverX
T2 sequence (Q16816 whole entry): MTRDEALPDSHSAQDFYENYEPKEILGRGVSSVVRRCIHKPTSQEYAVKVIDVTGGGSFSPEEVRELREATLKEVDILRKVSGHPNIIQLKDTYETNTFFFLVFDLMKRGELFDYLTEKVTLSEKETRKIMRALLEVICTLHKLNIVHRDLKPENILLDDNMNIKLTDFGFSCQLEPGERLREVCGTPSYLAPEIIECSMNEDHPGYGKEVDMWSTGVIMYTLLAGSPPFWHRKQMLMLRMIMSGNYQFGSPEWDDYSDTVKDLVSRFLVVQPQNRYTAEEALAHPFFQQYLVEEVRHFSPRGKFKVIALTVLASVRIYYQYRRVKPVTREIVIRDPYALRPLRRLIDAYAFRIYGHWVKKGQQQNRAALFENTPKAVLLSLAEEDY
Particulars: PHKG1; 1 uM; read-out: Percent Control (%). The procedure, abridged:
as §1

For experiment [3], the target named is T3, scanMAX Kinase assay panel (Homo sapiens, UniProt P49761).
T3 construct: purchased DiscoverX
T3 sequence (P49761 whole entry): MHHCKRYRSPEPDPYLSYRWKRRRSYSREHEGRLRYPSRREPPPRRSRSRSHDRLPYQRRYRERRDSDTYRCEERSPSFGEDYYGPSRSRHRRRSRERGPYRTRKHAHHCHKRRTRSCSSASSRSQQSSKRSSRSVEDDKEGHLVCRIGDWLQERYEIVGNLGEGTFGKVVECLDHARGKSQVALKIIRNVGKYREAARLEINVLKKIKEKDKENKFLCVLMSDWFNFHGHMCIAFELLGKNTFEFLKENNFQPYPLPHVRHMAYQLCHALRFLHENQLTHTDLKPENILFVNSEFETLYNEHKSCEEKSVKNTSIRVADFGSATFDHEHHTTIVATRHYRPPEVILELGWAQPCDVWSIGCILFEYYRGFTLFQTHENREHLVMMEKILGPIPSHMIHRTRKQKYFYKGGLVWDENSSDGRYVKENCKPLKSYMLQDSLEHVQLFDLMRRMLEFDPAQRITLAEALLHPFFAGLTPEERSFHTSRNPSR
Particulars: CLK3; 1 uM; read-out: Percent Control (%). A digest of the protocol:
as §1

The target in experiment [4] is T4, scanMAX Kinase assay panel (Homo sapiens, UniProt Q12866).
T4 construct: purchased DiscoverX
T4 sequence (Q12866 21-999): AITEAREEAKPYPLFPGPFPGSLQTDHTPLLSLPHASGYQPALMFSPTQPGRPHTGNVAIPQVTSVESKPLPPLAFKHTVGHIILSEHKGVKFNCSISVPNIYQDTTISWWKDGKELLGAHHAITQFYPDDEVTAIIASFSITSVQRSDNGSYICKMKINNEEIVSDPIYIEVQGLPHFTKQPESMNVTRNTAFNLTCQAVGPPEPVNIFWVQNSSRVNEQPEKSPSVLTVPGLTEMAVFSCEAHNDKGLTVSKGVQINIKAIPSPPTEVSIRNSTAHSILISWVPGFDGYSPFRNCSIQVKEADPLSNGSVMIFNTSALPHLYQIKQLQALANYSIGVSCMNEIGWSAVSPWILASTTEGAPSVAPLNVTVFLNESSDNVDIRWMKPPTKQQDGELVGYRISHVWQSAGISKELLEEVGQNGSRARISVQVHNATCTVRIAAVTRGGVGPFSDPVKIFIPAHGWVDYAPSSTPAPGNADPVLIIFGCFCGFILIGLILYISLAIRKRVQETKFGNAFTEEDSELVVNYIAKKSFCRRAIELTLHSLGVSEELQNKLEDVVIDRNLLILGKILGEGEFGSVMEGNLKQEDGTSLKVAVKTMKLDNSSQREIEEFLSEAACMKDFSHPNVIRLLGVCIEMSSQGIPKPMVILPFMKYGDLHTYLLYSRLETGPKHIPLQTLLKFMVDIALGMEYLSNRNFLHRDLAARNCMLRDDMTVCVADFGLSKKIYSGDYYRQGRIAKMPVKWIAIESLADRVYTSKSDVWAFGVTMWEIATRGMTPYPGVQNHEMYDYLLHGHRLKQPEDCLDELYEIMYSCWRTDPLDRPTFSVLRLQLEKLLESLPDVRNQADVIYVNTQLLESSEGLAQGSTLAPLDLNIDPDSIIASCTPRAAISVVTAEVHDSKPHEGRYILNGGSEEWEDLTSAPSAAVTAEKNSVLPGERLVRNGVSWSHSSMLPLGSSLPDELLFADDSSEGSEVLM
Particulars: MERTK; 1 uM; read-out: Percent Control (%). The procedure, abridged:
as §1

The target of experiment [5] is T5, scanMAX Kinase assay panel (Homo sapiens, UniProt Q9NRM7).
T5 construct: purchased DiscoverX
T5 sequence (Q9NRM7 1-1088): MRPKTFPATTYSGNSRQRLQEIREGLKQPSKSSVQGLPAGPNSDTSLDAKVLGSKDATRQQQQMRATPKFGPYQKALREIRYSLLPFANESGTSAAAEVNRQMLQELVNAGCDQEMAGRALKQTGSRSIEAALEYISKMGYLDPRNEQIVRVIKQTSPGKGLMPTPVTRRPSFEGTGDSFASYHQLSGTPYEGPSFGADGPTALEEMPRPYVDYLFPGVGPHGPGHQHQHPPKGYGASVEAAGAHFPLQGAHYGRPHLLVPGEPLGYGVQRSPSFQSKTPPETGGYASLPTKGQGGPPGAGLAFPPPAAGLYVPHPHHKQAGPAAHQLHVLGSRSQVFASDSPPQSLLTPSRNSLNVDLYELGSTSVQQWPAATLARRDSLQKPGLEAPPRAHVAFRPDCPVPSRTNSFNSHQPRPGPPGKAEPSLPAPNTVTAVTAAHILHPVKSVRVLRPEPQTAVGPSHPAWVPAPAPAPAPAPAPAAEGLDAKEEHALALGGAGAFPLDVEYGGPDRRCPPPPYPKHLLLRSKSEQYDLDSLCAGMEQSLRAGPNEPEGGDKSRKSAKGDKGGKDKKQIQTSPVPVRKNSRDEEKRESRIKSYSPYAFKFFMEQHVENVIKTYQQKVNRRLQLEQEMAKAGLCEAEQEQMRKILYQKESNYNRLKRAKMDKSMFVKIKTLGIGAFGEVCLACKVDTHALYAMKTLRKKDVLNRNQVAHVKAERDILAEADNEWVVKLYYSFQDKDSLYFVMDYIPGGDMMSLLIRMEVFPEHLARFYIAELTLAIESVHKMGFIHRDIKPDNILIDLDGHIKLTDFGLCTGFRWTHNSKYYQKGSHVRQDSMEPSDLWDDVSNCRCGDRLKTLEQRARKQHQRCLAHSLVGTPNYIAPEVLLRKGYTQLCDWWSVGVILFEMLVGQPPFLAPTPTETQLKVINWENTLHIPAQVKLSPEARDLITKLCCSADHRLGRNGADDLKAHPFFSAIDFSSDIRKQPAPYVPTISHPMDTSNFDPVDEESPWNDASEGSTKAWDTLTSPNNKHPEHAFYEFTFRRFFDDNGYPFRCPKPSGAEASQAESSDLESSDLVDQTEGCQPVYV
To be noted: LATS2; 1 uM; read-out: Percent Control (%). A digest of the protocol:
as §1

For experiment [6], the target named is T6, scanMAX Kinase assay panel (Homo sapiens, UniProt O75914).
T6 construct: purchased DiscoverX
T6 sequence (O75914 whole entry): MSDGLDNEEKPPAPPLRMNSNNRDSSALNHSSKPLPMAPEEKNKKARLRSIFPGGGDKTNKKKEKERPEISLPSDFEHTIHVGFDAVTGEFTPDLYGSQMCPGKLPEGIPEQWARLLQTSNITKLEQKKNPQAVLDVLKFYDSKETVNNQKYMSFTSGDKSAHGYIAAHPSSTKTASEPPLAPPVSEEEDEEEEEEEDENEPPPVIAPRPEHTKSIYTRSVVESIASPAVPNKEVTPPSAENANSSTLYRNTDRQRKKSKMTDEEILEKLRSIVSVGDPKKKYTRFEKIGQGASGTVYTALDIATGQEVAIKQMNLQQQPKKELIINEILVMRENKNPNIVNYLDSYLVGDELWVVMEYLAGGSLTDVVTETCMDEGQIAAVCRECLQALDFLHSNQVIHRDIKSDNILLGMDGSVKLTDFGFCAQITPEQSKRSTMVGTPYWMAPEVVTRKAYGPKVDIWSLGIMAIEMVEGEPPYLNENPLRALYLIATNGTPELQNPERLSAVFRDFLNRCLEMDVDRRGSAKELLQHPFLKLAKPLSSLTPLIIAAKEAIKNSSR
To be noted: PAK3; 1 uM; read-out: Percent Control (%). The procedure, abridged:
as §1

In experiment [7] the target is T7, scanMAX Kinase assay panel (Homo sapiens, UniProt Q8NEV4).
T7 construct: purchased DiscoverX
T7 sequence (Q8NEV4 whole entry): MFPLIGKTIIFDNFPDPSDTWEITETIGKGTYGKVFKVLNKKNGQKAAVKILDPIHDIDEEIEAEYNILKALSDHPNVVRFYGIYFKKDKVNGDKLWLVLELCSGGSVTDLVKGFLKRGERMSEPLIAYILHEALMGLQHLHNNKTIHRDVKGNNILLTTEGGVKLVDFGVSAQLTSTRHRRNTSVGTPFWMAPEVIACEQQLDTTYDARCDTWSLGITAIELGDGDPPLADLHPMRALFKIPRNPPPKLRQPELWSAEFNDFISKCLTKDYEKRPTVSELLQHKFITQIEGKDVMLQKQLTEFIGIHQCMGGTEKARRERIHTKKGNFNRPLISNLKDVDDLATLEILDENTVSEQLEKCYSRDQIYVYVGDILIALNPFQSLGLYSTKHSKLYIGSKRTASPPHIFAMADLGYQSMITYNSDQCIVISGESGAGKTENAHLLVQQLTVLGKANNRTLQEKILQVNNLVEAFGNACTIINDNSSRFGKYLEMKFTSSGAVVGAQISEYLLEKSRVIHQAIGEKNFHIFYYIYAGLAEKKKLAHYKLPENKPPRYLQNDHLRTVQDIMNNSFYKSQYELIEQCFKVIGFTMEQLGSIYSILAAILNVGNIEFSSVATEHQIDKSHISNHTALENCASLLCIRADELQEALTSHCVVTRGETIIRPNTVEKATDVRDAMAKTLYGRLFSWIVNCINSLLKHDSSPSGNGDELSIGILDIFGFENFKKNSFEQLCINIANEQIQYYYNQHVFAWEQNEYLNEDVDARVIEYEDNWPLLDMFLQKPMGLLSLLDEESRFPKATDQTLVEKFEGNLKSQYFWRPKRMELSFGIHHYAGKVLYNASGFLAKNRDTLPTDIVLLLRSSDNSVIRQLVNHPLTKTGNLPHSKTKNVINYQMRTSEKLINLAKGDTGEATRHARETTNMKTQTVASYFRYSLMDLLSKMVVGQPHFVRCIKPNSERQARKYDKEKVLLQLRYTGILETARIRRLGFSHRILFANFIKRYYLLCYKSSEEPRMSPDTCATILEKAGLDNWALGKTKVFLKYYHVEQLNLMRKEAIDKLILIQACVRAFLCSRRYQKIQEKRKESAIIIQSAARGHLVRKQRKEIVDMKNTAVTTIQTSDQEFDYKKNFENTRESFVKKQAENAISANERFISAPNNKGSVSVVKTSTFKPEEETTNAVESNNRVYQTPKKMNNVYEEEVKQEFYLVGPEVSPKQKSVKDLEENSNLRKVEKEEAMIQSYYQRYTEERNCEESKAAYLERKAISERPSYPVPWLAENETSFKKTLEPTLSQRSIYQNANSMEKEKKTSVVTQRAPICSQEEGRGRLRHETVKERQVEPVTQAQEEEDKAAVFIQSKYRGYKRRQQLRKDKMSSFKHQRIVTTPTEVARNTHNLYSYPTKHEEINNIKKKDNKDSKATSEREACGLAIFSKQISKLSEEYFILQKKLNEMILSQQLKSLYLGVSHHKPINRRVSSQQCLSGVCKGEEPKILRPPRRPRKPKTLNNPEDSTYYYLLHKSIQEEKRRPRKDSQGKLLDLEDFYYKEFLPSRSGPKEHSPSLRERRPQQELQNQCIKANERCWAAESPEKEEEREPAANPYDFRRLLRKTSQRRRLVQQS
Particulars: MYO3A; 1 uM; read-out: Percent Control (%). The procedure, abridged: as §1

Experiment [8] deals with T8, scanMAX Kinase assay panel (Homo sapiens, UniProt O43293).
T8 construct: purchased DiscoverX
T8 sequence (O43293 whole entry): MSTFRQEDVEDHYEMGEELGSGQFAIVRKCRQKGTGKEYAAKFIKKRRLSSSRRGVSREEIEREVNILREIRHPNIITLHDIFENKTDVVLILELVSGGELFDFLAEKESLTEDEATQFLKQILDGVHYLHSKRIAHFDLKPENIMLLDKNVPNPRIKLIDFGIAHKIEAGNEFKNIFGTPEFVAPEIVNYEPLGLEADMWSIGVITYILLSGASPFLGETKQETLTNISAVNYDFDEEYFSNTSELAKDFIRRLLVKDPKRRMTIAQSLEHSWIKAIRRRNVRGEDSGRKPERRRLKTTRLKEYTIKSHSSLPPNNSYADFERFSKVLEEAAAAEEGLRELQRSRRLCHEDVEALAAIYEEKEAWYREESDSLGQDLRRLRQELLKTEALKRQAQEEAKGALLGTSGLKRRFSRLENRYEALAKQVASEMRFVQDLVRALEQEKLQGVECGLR
To be noted: DAPK3; 1 uM; read-out: Percent Control (%). A digest of the protocol:
as §1

In experiment [9] the target is T9, scanMAX Kinase assay panel (Homo sapiens, UniProt P15056, V600E).
T9 construct: purchased DiscoverX
T9 sequence (P15056 whole entry V600E): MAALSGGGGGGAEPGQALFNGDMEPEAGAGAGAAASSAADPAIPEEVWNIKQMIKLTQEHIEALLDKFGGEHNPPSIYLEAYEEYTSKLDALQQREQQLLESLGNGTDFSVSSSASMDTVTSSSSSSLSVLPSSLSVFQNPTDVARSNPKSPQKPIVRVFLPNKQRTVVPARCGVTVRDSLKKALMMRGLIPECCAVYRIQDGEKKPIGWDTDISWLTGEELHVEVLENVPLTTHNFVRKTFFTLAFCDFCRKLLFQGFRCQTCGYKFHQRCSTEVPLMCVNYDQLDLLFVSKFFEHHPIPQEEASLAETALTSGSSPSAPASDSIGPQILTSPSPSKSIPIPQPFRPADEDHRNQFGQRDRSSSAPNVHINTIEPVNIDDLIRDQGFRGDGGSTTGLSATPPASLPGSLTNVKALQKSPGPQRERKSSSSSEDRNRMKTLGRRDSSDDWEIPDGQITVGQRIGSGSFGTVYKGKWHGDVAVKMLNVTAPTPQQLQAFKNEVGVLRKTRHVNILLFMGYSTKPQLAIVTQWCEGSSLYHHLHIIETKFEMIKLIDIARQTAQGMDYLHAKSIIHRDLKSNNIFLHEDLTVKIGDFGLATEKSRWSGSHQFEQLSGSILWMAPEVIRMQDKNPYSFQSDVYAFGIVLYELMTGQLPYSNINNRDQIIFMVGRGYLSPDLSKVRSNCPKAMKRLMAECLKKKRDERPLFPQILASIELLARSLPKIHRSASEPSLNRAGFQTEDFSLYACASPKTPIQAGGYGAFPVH
Particulars: BRAF (V600E); 1 uM; read-out: Percent Control (%). The procedure, abridged: as §1

T1 sequence (P27037 20-513): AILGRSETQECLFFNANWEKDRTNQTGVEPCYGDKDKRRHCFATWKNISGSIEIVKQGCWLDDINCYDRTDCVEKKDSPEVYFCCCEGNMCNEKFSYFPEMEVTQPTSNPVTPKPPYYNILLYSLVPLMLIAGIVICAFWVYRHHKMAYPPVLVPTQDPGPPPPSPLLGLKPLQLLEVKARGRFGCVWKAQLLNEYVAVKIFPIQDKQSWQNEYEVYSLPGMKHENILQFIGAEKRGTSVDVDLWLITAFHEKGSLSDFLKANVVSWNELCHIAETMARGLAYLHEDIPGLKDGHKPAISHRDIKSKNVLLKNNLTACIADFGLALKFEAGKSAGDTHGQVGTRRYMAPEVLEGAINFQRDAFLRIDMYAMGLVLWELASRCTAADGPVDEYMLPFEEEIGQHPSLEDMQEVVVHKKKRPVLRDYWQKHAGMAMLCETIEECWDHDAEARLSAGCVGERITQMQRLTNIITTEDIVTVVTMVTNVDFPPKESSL

In the case of `Cc1ccc(C(=O)Nc2ccc(CN3CCN(C)CC3)c(C(F)(F)F)c2)cc1C#Cc1cnc2c(Nc3cnn(C)c3)cccn12` [Example 1, 4-methyl-3-((8-((1-methyl-1H-pyrazol-4-yl)amino)imidazo[1,2-a]pyridin-3-yl)ethynyl)-N-(4-((4-methylpiperazin-1-yl)methyl)-3-(trifluoromethyl)phenyl)benzamide], the remaining binding at 1 µM in experiment [1] amounted to 95%; in experiment [2] it was 85%; in experiment [3] it was 48%; in experiment [4], 0%; in [5], 67%; in experiment [6], 85%. For the same compound, the remaining binding at 1 µM in [7] worked out at 14%; in [8], 68%; in [9], 5%.
As for `Cc1cn(-c2cc(NC(=O)c3ccc(C)c(C#Cc4cnc5c(Nc6cnn(C)c6)cccn45)c3)cc(C(F)(F)F)c2)cn1` [Example 12, 4-methyl-N-(3-(4-methyl-1H-imidazol-1-yl)-5-(trifluoromethyl)phenyl)-3-((8-((1-methyl-1H-pyrazol-4-yl)amino)imidazo[1,2-a]pyridin-3-yl)ethynyl)benzamide], the remaining binding at 1 µM in [1] was 100%; in [2], 84%; in experiment [3], 100%; in [4], 3%; in [5], 98%; in experiment [6] it was 95%. For the same compound, the remaining binding at 1 µM in [7] turned out to be 88%; in experiment [8], 100%; in [9] it was 56%.
As for `Cc1ccc(NC(=O)C2(C(=O)Nc3ccc(F)cc3)CC2)cc1C#Cc1cnc2c(Nc3cnn(C(C)C)c3)cccn12` [Example 78], the remaining binding at 1 µM in experiment [1] came to 100%; in experiment [2], 88%; in [3], 100%; in [4] it was 100%; in [5], 100%; in [6], 83%. Besides, the remaining binding at 1 µM in experiment [7], in experiment [8] and in [9] was 100% each time.
